# Publication PMC11637438, “Chickpea NCR13 disulfide cross-linking variants exhibit profound differences in antifungal activity and modes of action” (PLOS Pathogens, 2024)
# Where two headings read alike, the source gives them in different places. Ends that are not written are not given here. Peptide text beside a SMILES is read from it.
# System: B. cinerea
# Type: cell-based, Botrytis cinerea
# Experimental: B. cinerea strain T4 was cultured in V8 medium for 3 weeks at 25°C. Fungal spores were collected by flooding the fungal growth plates with water and scraped using a sterile spreader. The spore suspension was filtered through two layers of Miracloth, followed by centrifugation at 12,000 g for 2 minutes (min) and subsequently washed twice with sterile water. Lastly, fungal spores were resuspended in Synthetic Fungal Media (SFM). The spore suspension was adjusted to the desired spore density of about 10^5 spores/mL using a hemocytometer. Fusarium virguliforme (F. virguliforme) was grown and maintained regularly in potato dextrose agar (PDA) (Difco Laboratories) medium. Two weeks old F. virguliforme plates were used to collect spores as described above for B. cinerea followed by centrifugation and washing steps. Spores were counted using a hemocytometer and adjusted to the final concentration of 10^5 spores/mL in 2X SFM media. Sclerotinia sclerotiorum obtained from the field of pennycress in Illinois was grown on PDA medium at room temperature.
# The antifungal activity of NCR13 against fungal pathogens was determined using the resazurin cell viability assay, as described previously. Briefly, 45 μL of each peptide dilution (0, 0.09, 0.1875, 0.375, 0.75, 1.5, 3, and 6 μM) was added to each well of the microtiter plate containing 45 μL (~10^5 spores/mL) of spore suspension. Three biological replicates were used for each treatment and the experiments were repeated three times. Resazurin at 0.1% (w/v) was added to each well after incubation for 48 h. Images were taken at ~24 h. The Minimum Inhibitory Concentration (MIC) for each peptide denotes the lowest concentration at which the peptide halts the growth of fungus evident through a lack of color change from blue to […]. The in vitro antifungal activity of NCR13_PFVs against S. sclerotiorum was determined using a 24-well plate assay as previously described. Mycelial plugs (1 mm in diameter) cut from the growing edge of the two day-old actively growing colony were transferred from PDA media to a series of wells containing 250 μL of SFM.
# [1] = B. cinerea, resazurin assay in SFM, ~10^5 spores/mL, resazurin added after 48 h, three biological replicates
compound,measurement,setting,value
CC(C)[C@H](NC(=O)[C@H](CS)NC(=O)[C@H](CCCCN)NC(=O)[C@H](CS)NC(=O)[C@H](C)NC(=O)[C@H](C)NC(=O)[C@H](C)NC(=O)[C@H](C)NC(=O)[C@H](CS)NC(=O)[C@H](CCCCN)NC(=O)[C@@H]1CCCN1C(=O)[C@@H](NC(=O)[C@H](CCCCN)NC(=O)[C@@H]1CCCN1C(=O)[C@H](CCCCN)NC(=O)[C@H](CCCNC(=N)N)NC(=O)[C@H](CS)NC(=O)[C@H](C)NC(=O)[C@H](Cc1ccccc1)NC(=O)[C@H](CCCCN)NC(=O)[C@H](CCCCN)NC(=O)[C@H](CS)NC(=O)[C@H](CC(=O)O)NC(=O)[C@H](CCCCN)NC(=O)[C@H](CC(=O)O)NC(=O)[C@H](CO)NC(=O)[C@H](CCC(N)=O)NC(=O)[C@H](CS)NC(=O)[C@@H]1CCCN1C(=O)[C@H](CCCCN)NC(=O)[C@@H](N)[C@@H](C)O)C(C)C)C(=O)N[C@@H](CCCNC(=N)N)C(=O)O [NCR13_AlaV5] (H-TKPCQSDKDCKKFACRKPKVPKCAAAACKCVR-OH; N-terminus and C-terminus assumed),Minimal Inhibitory Concentration (MIC),48 h,12 µM
same,fold reduction in antifungal activity relative to NCR13_CS,"B. cinerea, reduced peptides",4 fold
CC[C@H](C)[C@H](NC(=O)[C@H](CS)NC(=O)[C@H](CCCCN)NC(=O)[C@@H]1CCCN1C(=O)[C@@H](NC(=O)[C@H](CCCCN)NC(=O)[C@@H]1CCCN1C(=O)[C@H](CCCCN)NC(=O)[C@H](CCCNC(=N)N)NC(=O)[C@H](CS)NC(=O)[C@H](C)NC(=O)[C@H](Cc1ccccc1)NC(=O)[C@H](CCCCN)NC(=O)[C@H](CCCCN)NC(=O)[C@H](CS)NC(=O)[C@H](CC(=O)O)NC(=O)[C@H](CCCCN)NC(=O)[C@H](CC(=O)O)NC(=O)[C@H](CO)NC(=O)[C@H](CCC(N)=O)NC(=O)[C@H](CS)NC(=O)[C@@H]1CCCN1C(=O)[C@H](CCCCN)NC(=O)[C@@H](N)[C@@H](C)O)C(C)C)C(=O)N[C@@H](CC(N)=O)C(=O)NCC(=O)N[C@@H](Cc1ccccc1)C(=O)N[C@@H](CS)C(=O)N[C@@H](CCCCN)C(=O)N[C@@H](CS)C(=O)N[C@H](C(=O)N[C@@H](CCCNC(=N)N)C(=O)O)C(C)C [NCR13_CS] (H-TKPCQSDKDCKKFACRKPKVPKCINGFCKCVR-OH; N-terminus and C-terminus assumed),fold decrease in antifungal activity compared to NCR13_PFV1,B. cinerea,~33 fold
same,fold decrease in antifungal activity compared to NCR13_PFV2,B. cinerea,2 fold
same,Minimal Inhibitory Concentration (MIC),[1],3 µM
TKPSQSDKDSKKFASRKPKVPKSINGFSKSVR [NSR13],Minimal Inhibitory Concentration (MIC),48 h,> 24 µM
same,Minimal Inhibitory Concentration (MIC),[1],Inactive
